Tests used:
Type in all cases: in vivo
[1] = system: Foxtail, Giant (giant foxtail, Setaria faberi); experiment: Test A1 postemergence, Foxtail, Giant; settings: for Plant response rating, Foxtail, Giant: Postemergence
Summary of the method: (§1)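 Pre: seeds in loam/sand blend, directed soil spray. Post: potted plants, same soil, 2–10 cm, 1–2 leaf stage. Chemicals in non-phytotoxic solvent + surfactant for both.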

[2] = system: blackgrass (Alopecurus myosuroides); experiment: Test A1 postemergence, blackgrass; settings: Postemergence, 0 to 100 scale (0 no effect, 100 complete control)
Summary of the method: as §1

[3] = system: ragweed (common ragweed, Ambrosia artemisiifolia); experiment: Test A1 postemergence, ragweed; settings: for Plant response rating, Ragweed: Postemergence
Summary of the method: (§2)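 Both timings started from seed in a loam-sand blend. Preemergence pots got a directed soil application immediately; postemergence pots were sprayed when seedlings had one or two leaves and stood 2–10 cm. Each compound was prepared in a non-phytotoxic solvent plus surfactant.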

[4] = system: Pigweed, Palmer (palmer amaranth, palmer pigweed, Amaranthus palmeri); experiment: Test A1 preemergence, Pigweed, Palmer
Summary of the method: as §2

[5] = system: Ryegrass, Italian (Italian ryegrass, Lolium multiflorum); experiment: Test A1 postemergence, Ryegrass, Italian; settings: for Plant response rating, Ryegrass, Italian: Postemergence
Summary of the method: as §1

[6] = system: Ryegrass, Italian (Italian ryegrass, Lolium multiflorum); experiment: Test A1 preemergence, Ryegrass, Italian
Summary of the method: as §2

[7] = system: goosegrass (Eleusine indica); experiment: Test A1 postemergence, goosegrass; settings: for Plant response rating, Goosegrass: Postemergence
Summary of the method: as §1

kochia (Bassia scoparia) = experiment: Test A1 preemergence, kochia
Summary of the method: as §2

[8] = 31 g ai/ha, 0 to 100 scale (0 no effect, 100 complete control), 10 days
[9] = 31 g ai/ha, 0 to 100 scale (0 no effect, 100 complete control)
[10] = 125 g ai/ha, 0 to 100 scale, 0 no effect, 100 complete control
[11] = 31 g ai/ha, postemergence, 0 to 100 scale (0 no effect, 100 complete control)

Row | SMILES | Plant response rating, Foxtail, Giant [1, 8] | Plant response rating, Foxtail, Giant ([1]; 125 g ai/ha, 0 to 100 scale) | Plant response rating, Blackgrass ([2]; 31 g ai/ha, 10 days) | Plant response rating, Blackgrass ([2]; 125 g ai/ha) | Plant response rating, Ragweed [3, 8] | Plant response rating, Ragweed ([3]; 125 g ai/ha, 0 to 100 scale) | Plant response rating, Pigweed, Palmer [4, 9] | Plant response rating, Pigweed, Palmer [4, 10] | Plant response rating, Ryegrass, Italian [5, 8] | Plant response rating, Ryegrass, Italian ([5]; 125 g ai/ha, 0 to 100 scale) | Plant response rating, Ryegrass, Italian [6, 9] | Plant response rating, Ryegrass, Italian [6, 10] | Plant response rating, Goosegrass [7, 8] | Plant response rating, Goosegrass ([7]; 125 g ai/ha, 0 to 100 scale) | Plant response rating, Kochia (kochia (Bassia scoparia); [9]) | Plant response rating, Kochia (kochia (Bassia scoparia); [10]) | Foxtail, Giant plant response rating [1, 11] | Ragweed plant response rating [3, 11] | Ryegrass, Italian plant response rating [5, 11] | Goosegrass plant response rating [7, 11]
1 | Cc1c(NS(=O)(=O)C(F)(F)F)cc(C(=O)N2CC(C)OC(C)C2)c(C)c1C (stereo not drawn) [Compound 328] | 0 | 70 | 0 | 0 | 40 | 70 | 100 | 100 | 30 | 60 | 30 | 100 | 20 | 80 | 20 | 90 | – | – | – | –
2 | C#CCN(C)C(=O)c1cc(NS(=O)(=O)C(F)(F)F)c(Cl)c(F)c1C [Compound 337] | 0 | 90 | 0 | 30 | 50 | 90 | 40 | 100 | 0 | 20 | 30 | 100 | 0 | 90 | 20 | 50 | – | – | – | –
3 | Cc1c(C(=O)N2CCOCC2)cc(N(COC(=O)C(C)(C)C)S(=O)(=O)C(F)(F)F)c(C)c1C [Compound 324, [[(Trifluoromethyl)sulfonyl][2,3,4-trimethyl-5-(4-morpholinylcarbonyl)phenyl]amino]methyl 2,2-dimethylpropanoate] | 20 | 90 | 0 | 0 | 70 | 70 | 100 | 100 | 0 | 30 | 20 | 100 | 30 | 80 | 60 | 90 | – | – | – | –
4 | CCc1cc(C)c(C2=NOC3(CCCC3)C2)cc1NS(=O)(=O)C(F)(F)F [Compound 311] | 0 | 20 | 0 | 0 | 0 | 0 | 30 | 30 | 0 | 0 | 0 | 60 | 0 | 0 | 0 | 0 | – | – | – | –
5 | CCC1ON=C(c2cc(NS(=O)(=O)C(F)(F)F)c(C)cc2C)C1CC (stereo not drawn) [Compound 346] | 30 | 50 | 0 | 60 | 50 | 70 | 100 | 100 | 0 | 80 | 50 | 90 | 40 | 90 | 30 | 30 | – | – | – | –
6 | Cc1c(NS(=O)(=O)C(F)(F)F)cc(C(=O)N2CCC(C)CC2)c(C)c1C [Compound 366] | – | 80 | 0 | 0 | – | 80 | 100 | 100 | – | 20 | 0 | 40 | – | 80 | 0 | 30 | 30 | 40 | 0 | 0

— US20230278972A1, “SUBSTITUTED HALOALKYL SULFONANILIDE HERBICIDES” (FMC Corporation, priority 2020, published 2023)
